Experimental data from PubChem BioAssay (NCI).
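Results reflect a 48-hour exposure of cells in 96-well plates to compound at five concentrations. GI50: concentration for 50% inhibition of growth. TGI is the concentration that stops growth completely.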

Experiments:
Assay in all cases: NCI-60 cell line screen, 48 h
786-0 renal = tested on: 786-0 renal
A549 NSCLC = tested on: A549 NSCLC
ACHN renal = tested on: ACHN renal
BT-549 breast = tested on: BT-549 breast
CAKI-1 renal = tested on: CAKI-1 renal
CCRF-CEM leukemia = tested on: CCRF-CEM leukemia
COLO 205 colon = tested on: COLO 205 colon
DU-145 prostate = tested on: DU-145 prostate
EKVX NSCLC = tested on: EKVX NSCLC
HCC-2998 colon = tested on: HCC-2998 colon
HCT-116 colon = tested on: HCT-116 colon
HCT-15 colon = tested on: HCT-15 colon
HOP-62 NSCLC = tested on: HOP-62 NSCLC
HOP-92 NSCLC = tested on: HOP-92 NSCLC
HS 578T breast = tested on: HS 578T breast
HT29 colon = tested on: HT29 colon
IGROV1 ovarian = tested on: IGROV1 ovarian
K-562 leukemia = tested on: K-562 leukemia
KM12 colon = tested on: KM12 colon
LOX IMVI melanoma = tested on: LOX IMVI melanoma
M14 melanoma = tested on: M14 melanoma
MCF7 breast = tested on: MCF7 breast
MDA-MB-231 breast = tested on: MDA-MB-231 breast
MDA-MB-435 = tested on: MDA-MB-435
MOLT-4 leukemia = tested on: MOLT-4 leukemia
NCI-H226 lung = tested on: NCI-H226 lung
NCI-H23 lung = tested on: NCI-H23 lung
NCI-H460 lung = tested on: NCI-H460 lung
NCI-H522 lung = tested on: NCI-H522 lung
NCI/ADR-RES ovarian = tested on: NCI/ADR-RES ovarian
OVCAR-3 ovarian = tested on: OVCAR-3 ovarian
OVCAR-4 ovarian = tested on: OVCAR-4 ovarian
OVCAR-5 ovarian = tested on: OVCAR-5 ovarian
OVCAR-8 ovarian = tested on: OVCAR-8 ovarian
PC-3 prostate = tested on: PC-3 prostate
RPMI-8226 leukemia = tested on: RPMI-8226 leukemia
RXF 393 renal = tested on: RXF 393 renal
SF-268 CNS = tested on: SF-268 CNS
SF-295 CNS = tested on: SF-295 CNS
SF-539 CNS = tested on: SF-539 CNS
SK-MEL-2 melanoma = tested on: SK-MEL-2 melanoma
SK-MEL-28 melanoma = tested on: SK-MEL-28 melanoma
SK-MEL-5 melanoma = tested on: SK-MEL-5 melanoma
SK-OV-3 ovarian = tested on: SK-OV-3 ovarian
SN12C renal = tested on: SN12C renal
SNB-19 CNS = tested on: SNB-19 CNS
SNB-75 CNS = tested on: SNB-75 CNS
SW-620 colon = tested on: SW-620 colon
T-47D breast = tested on: T-47D breast
TK-10 renal = tested on: TK-10 renal
U251 CNS = tested on: U251 CNS
UACC-257 melanoma = tested on: UACC-257 melanoma
UACC-62 melanoma = tested on: UACC-62 melanoma
UO-31 renal = tested on: UO-31 renal

O=C(Cc1csc2nc(-c3ccc(Br)cc3)cn12)N/N=C/c1cc(Br)ccc1O
GI50 (786-0 renal): 15 µM
TGI (786-0 renal): > 100 µM
GI50 (A549 NSCLC): 18.8 µM
TGI (A549 NSCLC): > 100 µM
GI50 (ACHN renal): 6.13 µM
TGI (ACHN renal): 42.9 µM
GI50 (BT-549 breast): 27.7 µM
TGI (BT-549 breast): > 100 µM
GI50 (CAKI-1 renal): 4.53 µM
TGI (CAKI-1 renal): 34.9 µM
GI50 (CCRF-CEM leukemia): 3.89 µM
TGI (CCRF-CEM leukemia): 38.6 µM
GI50 (COLO 205 colon): 23.9 µM
TGI (COLO 205 colon): > 100 µM
GI50 (DU-145 prostate): 19.5 µM
TGI (DU-145 prostate): > 100 µM
GI50 (EKVX NSCLC): 24.2 µM
TGI (EKVX NSCLC): > 100 µM
GI50 (HCC-2998 colon): 5.5 µM
TGI (HCC-2998 colon): 19.7 µM
GI50 (HCT-116 colon): 4.31 µM
TGI (HCT-116 colon): 48.2 µM
GI50 (HCT-15 colon): 5.6 µM
TGI (HCT-15 colon): > 100 µM
GI50 (HOP-62 NSCLC): 9.77 µM
TGI (HOP-62 NSCLC): 41.3 µM
GI50 (HOP-92 NSCLC): 22.2 µM
TGI (HOP-92 NSCLC): > 100 µM
GI50 (HS 578T breast): 53.3 µM
TGI (HS 578T breast): > 100 µM
GI50 (HT29 colon): 34.7 µM
TGI (HT29 colon): > 100 µM
GI50 (IGROV1 ovarian): 1770 nM
TGI (IGROV1 ovarian): > 100 µM
GI50 (K-562 leukemia): 3.02 µM
TGI (K-562 leukemia): 13.9 µM
GI50 (KM12 colon): 29.6 µM
TGI (KM12 colon): > 100 µM
GI50 (LOX IMVI melanoma): 6.79 µM
TGI (LOX IMVI melanoma): 28 µM
GI50 (M14 melanoma): 14.3 µM
TGI (M14 melanoma): 30.4 µM
GI50 (MCF7 breast): > 100 µM
TGI (MCF7 breast): > 100 µM
GI50 (MDA-MB-231 breast): 11.8 µM
TGI (MDA-MB-231 breast): 66.8 µM
GI50 (MDA-MB-435): 18 µM
TGI (MDA-MB-435): > 100 µM
GI50 (MOLT-4 leukemia): 674 nM
TGI (MOLT-4 leukemia): 8.41 µM
GI50 (NCI-H226 lung): 23.3 µM
TGI (NCI-H226 lung): 65.1 µM
GI50 (NCI-H23 lung): 4.32 µM
TGI (NCI-H23 lung): 26.2 µM
GI50 (NCI-H460 lung): > 100 µM
TGI (NCI-H460 lung): > 100 µM
GI50 (NCI-H522 lung): 11.3 µM
TGI (NCI-H522 lung): > 100 µM
GI50 (NCI/ADR-RES ovarian): 2230 nM
TGI (NCI/ADR-RES ovarian): 6.75 µM
GI50 (OVCAR-3 ovarian): 45.3 µM
TGI (OVCAR-3 ovarian): > 100 µM
GI50 (OVCAR-4 ovarian): 50.2 µM
TGI (OVCAR-4 ovarian): > 100 µM
GI50 (OVCAR-5 ovarian): 14 µM
TGI (OVCAR-5 ovarian): 73.5 µM
GI50 (OVCAR-8 ovarian): 7.06 µM
TGI (OVCAR-8 ovarian): > 100 µM
GI50 (PC-3 prostate): 9.46 µM
TGI (PC-3 prostate): > 100 µM
GI50 (RPMI-8226 leukemia): 5.04 µM
TGI (RPMI-8226 leukemia): > 100 µM
GI50 (RXF 393 renal): 63.9 µM
TGI (RXF 393 renal): > 100 µM
GI50 (SF-268 CNS): > 100 µM
TGI (SF-268 CNS): > 100 µM
GI50 (SF-295 CNS): 14 µM
TGI (SF-295 CNS): 88.3 µM
GI50 (SF-539 CNS): 14.9 µM
TGI (SF-539 CNS): 53.8 µM
GI50 (SK-MEL-2 melanoma): 89 µM
TGI (SK-MEL-2 melanoma): > 100 µM
GI50 (SK-MEL-28 melanoma): 48.8 µM
TGI (SK-MEL-28 melanoma): > 100 µM
GI50 (SK-MEL-5 melanoma): 11.4 µM
TGI (SK-MEL-5 melanoma): 45.4 µM
GI50 (SK-OV-3 ovarian): > 100 µM
TGI (SK-OV-3 ovarian): > 100 µM
GI50 (SN12C renal): 16.6 µM
TGI (SN12C renal): 79.6 µM
GI50 (SNB-19 CNS): 26.1 µM
TGI (SNB-19 CNS): > 100 µM
GI50 (SNB-75 CNS): > 100 µM
TGI (SNB-75 CNS): > 100 µM
GI50 (SW-620 colon): 5.51 µM
TGI (SW-620 colon): > 100 µM
GI50 (T-47D breast): 35.3 µM
TGI (T-47D breast): > 100 µM
GI50 (TK-10 renal): 4.33 µM
TGI (TK-10 renal): 17 µM
GI50 (U251 CNS): 11.3 µM
TGI (U251 CNS): > 100 µM
GI50 (UACC-257 melanoma): 20.1 µM
TGI (UACC-257 melanoma): 63.2 µM
GI50 (UACC-62 melanoma): 10.4 µM
TGI (UACC-62 melanoma): 28.6 µM
GI50 (UO-31 renal): 24 µM
TGI (UO-31 renal): > 100 µM
